“And” between values parts separate entries of the source, which are not always exact repeats. Equal values may be shown once. The source made the active and inactive calls.
Columns and labels:
Cytochrome P450 2C9 = Cytochrome P450 2C9 (Homo sapiens, UniProt P11712)
[1] = target: T1, Heat shock factor protein 1 (Mus musculus, UniProt P38532); assay: inhibition of MG132-induced HSE-luciferase signal, confirmation, cell-based, NIH3T3, luminescence, dose retest (AID 2382); assay type: functional;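 note: NIH3T3 fibroblasts with HSF1-driven luciferase reporter stressed by proteasome inhibitor MG132; luminescence from HSF1-driven luciferase expression after 8 hours of MG132 stress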
T1 sequence (P38532 whole entry): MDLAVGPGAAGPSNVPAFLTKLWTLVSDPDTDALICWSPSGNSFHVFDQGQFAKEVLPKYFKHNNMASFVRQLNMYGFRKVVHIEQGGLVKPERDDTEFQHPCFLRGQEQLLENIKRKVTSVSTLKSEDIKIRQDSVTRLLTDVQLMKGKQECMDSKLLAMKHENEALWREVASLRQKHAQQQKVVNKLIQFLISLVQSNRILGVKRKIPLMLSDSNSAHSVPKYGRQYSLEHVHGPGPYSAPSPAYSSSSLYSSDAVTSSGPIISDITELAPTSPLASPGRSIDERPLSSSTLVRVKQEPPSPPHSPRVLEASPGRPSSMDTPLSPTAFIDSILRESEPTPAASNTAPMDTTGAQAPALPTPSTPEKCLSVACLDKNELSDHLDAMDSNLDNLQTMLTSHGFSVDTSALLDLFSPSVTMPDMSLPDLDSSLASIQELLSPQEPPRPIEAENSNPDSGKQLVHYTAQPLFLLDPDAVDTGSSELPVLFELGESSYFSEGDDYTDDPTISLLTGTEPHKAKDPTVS

Cytochrome P450 3A4 = Cytochrome P450 3A4 (Homo sapiens, UniProt P08684);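 note: CYP3A4 tested as one member of a cytochrome P450 panel screen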
Sequence of Cytochrome P450 3A4 (P08684 whole entry): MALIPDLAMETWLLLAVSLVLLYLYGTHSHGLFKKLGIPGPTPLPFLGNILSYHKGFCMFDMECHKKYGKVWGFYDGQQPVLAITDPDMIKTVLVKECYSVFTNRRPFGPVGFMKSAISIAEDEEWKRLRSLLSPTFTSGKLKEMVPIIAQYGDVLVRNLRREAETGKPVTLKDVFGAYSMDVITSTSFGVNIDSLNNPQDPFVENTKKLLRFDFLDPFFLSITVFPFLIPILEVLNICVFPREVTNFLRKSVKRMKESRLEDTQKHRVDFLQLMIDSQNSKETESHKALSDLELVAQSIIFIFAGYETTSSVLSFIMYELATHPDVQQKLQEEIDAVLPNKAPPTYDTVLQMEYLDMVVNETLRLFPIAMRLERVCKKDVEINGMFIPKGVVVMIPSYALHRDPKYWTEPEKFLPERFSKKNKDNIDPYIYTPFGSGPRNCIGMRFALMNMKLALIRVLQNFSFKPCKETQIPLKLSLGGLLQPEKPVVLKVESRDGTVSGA

Streptokinase A = target: T2, Streptokinase A (Streptococcus pyogenes serotype M1, UniProt P10520); assay: S. pyogenes streptokinase expression inhibitors, potency, dose response, plasminogen activation absorbance, OD405 (AID 1914); assay type: functional, Streptococcus pyogenes M1 GAS;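 note: secreted streptokinase activity via plasminogen activation per viability signal from cell pellet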
T2 sequence (P10520 whole entry): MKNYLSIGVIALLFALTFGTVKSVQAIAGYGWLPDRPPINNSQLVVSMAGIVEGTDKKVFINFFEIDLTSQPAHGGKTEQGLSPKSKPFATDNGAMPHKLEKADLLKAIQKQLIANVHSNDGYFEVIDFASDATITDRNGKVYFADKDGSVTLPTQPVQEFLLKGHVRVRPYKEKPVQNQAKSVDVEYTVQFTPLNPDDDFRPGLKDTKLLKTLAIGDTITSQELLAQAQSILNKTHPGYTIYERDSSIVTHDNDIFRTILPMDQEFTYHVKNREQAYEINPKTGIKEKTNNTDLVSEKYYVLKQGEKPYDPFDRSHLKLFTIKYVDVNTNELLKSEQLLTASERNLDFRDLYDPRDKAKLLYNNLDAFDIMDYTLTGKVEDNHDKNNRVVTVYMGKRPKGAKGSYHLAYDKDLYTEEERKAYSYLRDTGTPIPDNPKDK

Streptococcus = assay: Group A Streptococcus viability loss, dose response, counter-screen for streptokinase expression inhibitor project, luminescence, BacTiterGlo (AID 1915); assay type: functional, organism-based;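 note: potency for reduction of bacterial viability or growth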
[2] = test system: Streptococcus sp. 'group A'; assay: growth inhibition of control SK(-) GAS strain, dose response, counter-screen for streptokinase expression inhibitor project, luminescence, kanamycin, BacTiterGlo, confirmation (AID 1900); assay type: functional, organism-based
Cytochrome P450 2C19 = Cytochrome P450 2C19 (Homo sapiens, UniProt P33261); assay: Cytochrome panel assay with activity outcomes. Panel member name: p450-cyp2c19 Compounds with AC50 equal or less than 10 uM are considered active; assay type: functional
Sequence of Cytochrome P450 2C19 (P33261 whole entry): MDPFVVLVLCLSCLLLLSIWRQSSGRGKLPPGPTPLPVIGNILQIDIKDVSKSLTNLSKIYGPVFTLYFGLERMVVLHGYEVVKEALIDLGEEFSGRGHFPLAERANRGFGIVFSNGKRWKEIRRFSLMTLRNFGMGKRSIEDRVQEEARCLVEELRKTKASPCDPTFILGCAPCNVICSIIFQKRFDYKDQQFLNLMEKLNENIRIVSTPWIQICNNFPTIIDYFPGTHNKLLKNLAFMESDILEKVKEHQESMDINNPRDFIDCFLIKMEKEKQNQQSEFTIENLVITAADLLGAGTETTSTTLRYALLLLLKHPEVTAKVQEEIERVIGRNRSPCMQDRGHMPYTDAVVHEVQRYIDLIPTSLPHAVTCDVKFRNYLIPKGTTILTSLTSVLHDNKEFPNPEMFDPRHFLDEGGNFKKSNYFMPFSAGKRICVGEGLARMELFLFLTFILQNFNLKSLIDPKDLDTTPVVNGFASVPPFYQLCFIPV

[3] = inhibitors of intracellular T. cruzi replication, confirmation, NIH3T3 host cells, beta-gal luminescence (AID 2044); assay type: functional, cell-based;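 note: intracellular parasites grown in NIH/3T3 mouse fibroblasts as host cells; luminescent beta-galactosidase reporter signal from transgenic T. cruzi replicating inside host cells; inhibitors lower the luminescence signal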
[4] = cytotoxicity toward NIH3T3 fibroblasts, dose response, counter-screen, cell-based, ATP luminescence, mouse fibroblasts (AID 2010); assay type: functional;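 note: cells exposed to compound for about 90 hours before reading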

Sequence of Cytochrome P450 2C9 (P11712 whole entry): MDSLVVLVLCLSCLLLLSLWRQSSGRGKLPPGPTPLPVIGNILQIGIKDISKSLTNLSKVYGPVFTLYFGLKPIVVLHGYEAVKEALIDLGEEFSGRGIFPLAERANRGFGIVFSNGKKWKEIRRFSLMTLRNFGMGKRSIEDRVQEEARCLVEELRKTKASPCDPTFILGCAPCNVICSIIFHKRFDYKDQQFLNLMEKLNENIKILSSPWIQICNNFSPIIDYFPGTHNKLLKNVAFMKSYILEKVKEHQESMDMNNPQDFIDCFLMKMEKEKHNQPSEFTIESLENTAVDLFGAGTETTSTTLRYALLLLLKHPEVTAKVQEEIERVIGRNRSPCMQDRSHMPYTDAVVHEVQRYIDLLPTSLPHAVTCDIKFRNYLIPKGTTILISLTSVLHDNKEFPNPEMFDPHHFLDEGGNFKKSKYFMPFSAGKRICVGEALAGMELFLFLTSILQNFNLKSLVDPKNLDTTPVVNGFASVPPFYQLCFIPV

CCOC(=O)c1c(-c2ccccc2)nc2ccc(Cl)cn12
AC50 (Cytochrome P450 2C9): 15.8 µM (inconclusive)

CSc1nc(Cc2ccccc2)cc(=O)[nH]1
EC50 [1]: > 195 µM (not active)

O=C(c1c(O)nc2cc(Cl)ccc2c1O)C1CC1
AC50 (Cytochrome P450 3A4): 0.00316 µM (inconclusive)

CN(CCc1ccccn1)c1ccc2c(c1)Cc1ccccc1-2
AC50 (Cytochrome P450 2C9): 7.94 µM (inconclusive)

COc1ccc(Cl)cc1C(=O)NNC(=S)NC(=O)c1cc(-c2ccccc2)nc2ccccc12
EC50 (Streptokinase A): > 150 µM (not active)
EC50 (Streptococcus): > 150 µM (inconclusive)
EC50 [2]: 1.31 µM (active)

COC(=O)c1ccc(NC(=O)c2cc3sccc3n2C)cc1
AC50 (Cytochrome P450 2C9): 10 µM (inconclusive)

CCCCNC(=O)c1onc(CSc2cccc(Cl)c2)c1C(=O)O
EC50 [1]: > 195 µM (not active)

Fc1ccccc1N=C(S)Nc1ccc(CN2CCOCC2)cc1
EC50 [1]: 68.4 µM (active)

N#Cc1c(N)n(-c2ccccc2N)c2nc3ccccc3nc12
EC50 [1]: 11.2 µM (active)

COc1ccc(Cl)cc1C(=O)NNC(=S)NC(=O)c1ccc(F)c(F)c1
EC50 (Streptococcus): 1.37 µM (active)
EC50 [2]: 0.217 µM (active)

CC(=O)c1cc(C#N)c(Oc2cccc(C(F)(F)F)c2)nc1C
AC50 (Cytochrome P450 2C9): 25.1 µM (inconclusive)

COC(=O)[C@H]1C[C@@H]1[C@H](NC(=O)c1cnccn1)c1ccccc1
AC50 (Cytochrome P450 3A4): 7.94 µM (inconclusive)

O=C(O)c1cc(-c2ccc(-c3ccc(-c4cc(C(=O)O)c5cc(Cl)ccc5n4)cc3)cc2)nc2ccc(Cl)cc12
AC50 (Cytochrome P450 2C9): 3.16 µM (inconclusive)

O=C(NCC1CCCO1)C(c1cccnc1)N(C(=O)Cc1cccs1)c1cccnc1 (stereo not given)
AC50 (Cytochrome P450 2C19; read-out: AC50): 31.6 µM (inconclusive)

Cc1cc(NC2CCCC2)n2nc(C)c(-c3ccccc3)c2n1
EC50 [3]: 3.4 µM (active)
EC50 [4]: > 60 µM (not active)

Cc1cc(C)cc(NS(=O)(=O)c2ccc(NC(=S)NC(=O)c3cccs3)cc2)c1
EC50 (Streptokinase A): 11.7 µM (active)
EC50 (Streptococcus): 50.1 µM (active)
EC50 [2]: 4.5 µM (active)

CC[C@@]1(c2ccc(N)cc2)CCC(=O)NC1=O
AC50 (Cytochrome P450 3A4): 12.6 µM (inconclusive) and 10 µM (inconclusive)

Nc1ccccc1SCC(=O)Nc1ccc2c(c1)OCCO2
EC50 [1]: > 195 µM (not active)

CCCC[C@@H]1CNC(=O)C(=O)N1CCc1cccc2ccccc12
EC50 [1]: > 195 µM (not active)

Cc1ccc(SCCCn2cncn2)cc1
EC50 [1]: > 195 µM (not active)

CC(C)(C)NC(=O)C1CC(=O)OC12CCOC(C)(C)C2 (stereo not given)
EC50 [1]: > 195 µM (not active)

COC(=O)[C@H]1C[C@@H]1[C@H](NC(=O)c1ccccc1)c1ccccc1
AC50 (Cytochrome P450 2C9): 39.8 µM (inconclusive)

CCn1c(SCC(=O)Nc2sc3c(c2C#N)CCCC3)nnc1-c1ccco1
EC50 [3]: 1.89 µM (active)
EC50 [4]: > 60 µM (inconclusive)

Cc1cccc(C(=O)NC2CCN(C(=O)Nc3ccc(F)cc3)CC2)c1
EC50 [1]: 32.7 µM (active)

C[C@H](CCC(=O)NN)[C@@H]1CC[C@@H]2[C@H]3CC[C@H]4C[C@@H](O)CC[C@@]4(C)[C@@H]3CC[C@]21C
AC50 (Cytochrome P450 2C19; read-out: AC50): 3.16 µM (inconclusive)

Cc1cc(OCC(=O)OC(C)C)c2c3c(c(=O)oc2c1)CCCC3
AC50 (Cytochrome P450 3A4): 28.2 µM (inconclusive)

COc1cccc(Nc2ncc3nc(-c4ccc(Cl)cc4)c(=O)n(C[C@H]4CCCO4)c3n2)c1
AC50 (Cytochrome P450 3A4): 15.8 µM (inconclusive)

Cc1nn(Cc2ccccc2)c(C)c1NC(=O)c1noc2c1CCc1ccccc1-2
EC50 [1]: > 195 µM (not active)

Brc1ccc(C2C3=C(Nc4ncnn42)c2ccccc2OC3c2ccncc2)cc1 (stereo not given)
EC50 (Streptokinase A): > 150 µM (not active)
EC50 [3]: 4.12 µM (active)
EC50 (Streptococcus): 21.5 µM (active)
EC50 [2]: 22.4 µM (active)
EC50 [4]: > 60 µM (not active)

CC(C)N1CCN(Cc2ccc3nsnc3c2)CC1CCO (stereo not given)
EC50 [1]: > 195 µM (not active)

Oc1ccccc1C1CCCCC1c1ccccc1 (stereo not given)
EC50 (Streptokinase A): 12.7 µM (active)
EC50 (Streptococcus): 50.4 µM (active)
EC50 [2]: 3.83 µM (active)

COc1ccc(-c2oc(NC(=O)CSc3nc[nH]n3)c(C#N)c2-c2ccc(OC)cc2)cc1
EC50 (Streptokinase A): 1.08 µM (active)
EC50 (Streptococcus): 16 µM (active)
EC50 [2]: 2.37 µM (active)

Cc1ccc(S(=O)(=O)n2c3ccccc3c3nnc(C(=O)c4ccccc4)nc32)cc1
AC50 (Cytochrome P450 2C19; read-out: AC50): 0.0126 µM (inconclusive)
AC50 (Cytochrome P450 2C9): 3.16 µM (inconclusive)

COc1cccc(-c2cncnc2NC2CCNCC2)c1
AC50 (Cytochrome P450 2C19): inconclusive

CCCNC(=O)OC[C@@H]1O[C@H](CCO/N=C(\C)CCN2CCc3nc(-c4ccccc4)c(-c4ccccc4)cc3C2)C=C[C@@H]1Oc1ccc(OC)cc1
AC50 (Cytochrome P450 2C19; read-out: AC50): 0.316 µM (inconclusive)

Cc1ccsc1C(=O)C1CCCN(Cc2ccc(-n3cccn3)cc2)C1 (stereo not given)
EC50 [3]: 0.201 µM (active)
EC50 [4]: > 60 µM (inconclusive)

COc1ccccc1NC(=O)c1ccc(N2CC3CC(C2)c2cccc(=O)n2C3)c(NC(=O)c2ccncc2)c1 (stereo not given)
EC50 [1]: > 195 µM (not active)

CN1CCN(c2ccc(S(=O)(=O)N3CCCCC3)cc2[N+](=O)[O-])CC1
EC50 [3]: 0.81 µM (active)
EC50 [4]: > 60 µM (not active)

O=C(c1ccc2c(c1)OCO2)C1CCCN(Cc2cccn2-c2cccnc2)C1 (stereo not given)
EC50 [3]: 3.29 µM (active)
EC50 [4]: > 60 µM (not active)

O=C(Nc1ccccc1Cc1ccccc1)c1ccncc1
EC50 [3]: 0.802 µM (active)
EC50 [4]: > 60 µM (not active)

Cc1ccccc1OCCC(=O)OCC(=O)N1c2ccccc2NC(=O)C1(C)C
EC50 [1]: > 195 µM (not active)

CS(=O)(=O)c1cccc(NC(=O)c2ccc(Cl)c(Cl)c2)c1
EC50 [3]: 3.1 µM (active)
EC50 [4]: > 30 µM (not active)

COCCn1c(C(=O)N(C)C)cc2c1C[C@H]1CN(C(=O)c3ccccc3)[C@@](Cc3ccc(F)cc3)(C(=O)OC)[C@@H]21
AC50 (Cytochrome P450 2C19; read-out: AC50): 39.8 µM (inconclusive)
AC50 (Cytochrome P450 2C9): 25.1 µM (inconclusive)

COc1cc(OC)cc(C(=O)N[C@H](C(=O)OCC(=O)N2CCc3ccccc32)C(C)C)c1
EC50 [1]: > 195 µM (not active)

CCCCCCN1N=C(C)C(C(=O)c2ccc(Cl)cc2)C1=O (stereo not given)
EC50 (Streptokinase A): > 150 µM (not active)
EC50 (Streptococcus): 29.5 µM (active)
EC50 [2]: 2.44 µM (active)

CCOC(=O)c1ccc(NC(=O)c2[nH]cnc2C(=O)N[C@@H](Cc2ccccc2)C(=O)OC(C)(C)C)cc1
EC50 (Streptokinase A): > 150 µM (not active)
EC50 (Streptococcus): 44.9 µM (active)
EC50 [2]: 5.26 µM (active)

COc1ccc(-c2[nH]ncc2N=Nc2cc(C)cc(C)c2)cc1
EC50 (Streptokinase A): > 150 µM (not active)
EC50 (Streptococcus): > 150 µM (not active)
EC50 [2]: 23.1 µM (active)

O=C(CNCCc1ccc(F)cc1)Nc1cc(F)ccc1F
EC50 [1]: > 195 µM (not active)

CC(OC(=O)CN1C(=O)NC2(CCCC2)C1=O)C(=O)c1ccccc1 (stereo not given)
EC50 [1]: > 195 µM (not active)

Cn1cccc1C(=O)N1CCC2(CCN(Cc3ccc(C#N)cc3)CC2)CC1
AC50 (Cytochrome P450 2C19; read-out: AC50): 0.2 µM (inconclusive)

CC(=O)c1c(-c2ccc(Cl)cc2Cl)noc1C
EC50 [1]: > 195 µM (not active)

CCC1CC(CSc2nc[nH]n2)OC1=O (stereo not given)
AC50 (Cytochrome P450 2C9): 25.1 µM (inconclusive)

CCOC(=O)c1c(-c2ccc(OC)cc2)csc1NC=C1C(=O)CCCC1=O
EC50 (Streptokinase A): > 150 µM (not active)
EC50 (Streptococcus): 32.7 µM (active)
EC50 [2]: 66 µM (active)

Cc1c(C#N)c(/N=C/N(C)C)c(C(=O)c2ccc(Br)cc2)n1-c1ccc(Cl)cc1
EC50 [3]: 2.8 µM (active)
EC50 [4]: > 60 µM (inconclusive)

Cc1nn(-c2ccccc2)c(C)c1/C=N/NC(=O)c1cc(C23CC4CC(CC(C4)C2)C3)[nH]n1
EC50 (Streptokinase A): 10.3 µM (active)
EC50 (Streptococcus): 46.2 µM (active)
EC50 [2]: 5.31 µM (active)

Oc1ccccc1/N=C/c1c(O)ccc2oc3c(c12)CCCC3
EC50 (Streptokinase A): > 150 µM (not active)
EC50 (Streptococcus): 10.6 µM (active)
EC50 [2]: 7.61 µM (active)

CCO/C(O)=C1\C(C)=Nc2sc(C(=O)c3ccc(Br)cc3)c(N)c2C1c1ccc(C(=O)OC)cc1 (stereo not given)
EC50 [3]: 1.09 µM (active)
EC50 [4]: 15.8 µM (active)

COc1ccc(Cl)cc1Nc1nc(-c2cccnc2)cs1
EC50 [3]: 3.22 µM (active)
EC50 [4]: 14 µM (active)

Source: ChEMBL document CHEMBL1201862, “PubChem BioAssay data set” (2004)
